Measured values published in patent US9815839B2, “N-(1-(substituted-phenyl)ethyl)-9H-purin-6-amines as PI3K inhibitors” (Incyte Corporation, priority 2010, dated 2017).
pIC50: −log10 of the molar value. Structures can show the parent of a compound that is named as a salt.

What follows are compounds tested against T1, PI3Kδ (p110δ/p85α) (Homo sapiens, UniProt O00329) (assay: PI3Kδ scintillation proximity assay). Settings: 20 μM ATP, 4 nM PI3Kδ.
T1 construct: purchased Millipore (Bedford, Mass.)
Type: biochemical
From the text: Example A: PI3Kδ Scintillation Proximity Assay
Materials: [γ-^33P]ATP (10 mCi/mL) was purchased from Perkin-Elmer (Waltham, Mass.). Lipid kinase substrate, D-myo-Phosphatidylinositol 4,5-bisphosphate (PtdIns(4,5)P2)D (+)-sn-1,2-di-O-octanoylglyceryl, 3-O-phospho linked (PIP2), CAS 204858-53-7, was purchased from Echelon Biosciences (Salt Lake City, Utah). PI3Kδ (p110δ/p85α) was purchased from Millipore (Bedford, Mass.). ATP, MgCl2, DTT, EDTA, MOPS and CHAPS were purchased from Sigma-Aldrich (St. Louis, Mo.). Wheat Germ Agglutinin (WGA) YSi SPA Scintillation Beads was purchased from GE healthcare life sciences (Piscataway, N.J.).
The kinase reaction was conducted in polystyrene 384-well matrix white plate from Thermo Fisher Scientific in a final volume of 25 μL. Inhibitors were first diluted serially in DMSO and added to the plate wells before the addition of other reaction components. The final concentration of DMSO in the assay was 0.5%. The PI3K assays were carried out at room temperature in 20 mM MOPS, pH 6.7, 10 mM MgCl2, 5 mM DTT and CHAPS 0.03%. Reactions were initiated by the addition of ATP, the final reaction mixture consisted of 20 μM PIP2,20 μM ATP, 0.2 μCi [γ-^33P] ATP, 4 nM PI3Kδ. Reactions were incubated for 210 minutes and terminated by the addition of 40 μL SPA beads suspended in quench buffer: 150 mM potassium phosphate pH 8.0, 20% glycerol. 25 mM EDTA, 400 µM ATP. The final concentration of SPA beads is 1.0 mg/mL. After the plate sealing, plates were shaken overnight at room temperature and centrifuged at 1800 rpm for 10 minutes, the radioactivity of the product was determined by scintillation counting on Topcount (Perkin-Elmer). IC50 determination was performed by fitting the curve of percent control activity versus the log of the inhibitor concentration using the GraphPad Prism 3.0 software.

T1 sequence (O00329 whole entry, species assumed): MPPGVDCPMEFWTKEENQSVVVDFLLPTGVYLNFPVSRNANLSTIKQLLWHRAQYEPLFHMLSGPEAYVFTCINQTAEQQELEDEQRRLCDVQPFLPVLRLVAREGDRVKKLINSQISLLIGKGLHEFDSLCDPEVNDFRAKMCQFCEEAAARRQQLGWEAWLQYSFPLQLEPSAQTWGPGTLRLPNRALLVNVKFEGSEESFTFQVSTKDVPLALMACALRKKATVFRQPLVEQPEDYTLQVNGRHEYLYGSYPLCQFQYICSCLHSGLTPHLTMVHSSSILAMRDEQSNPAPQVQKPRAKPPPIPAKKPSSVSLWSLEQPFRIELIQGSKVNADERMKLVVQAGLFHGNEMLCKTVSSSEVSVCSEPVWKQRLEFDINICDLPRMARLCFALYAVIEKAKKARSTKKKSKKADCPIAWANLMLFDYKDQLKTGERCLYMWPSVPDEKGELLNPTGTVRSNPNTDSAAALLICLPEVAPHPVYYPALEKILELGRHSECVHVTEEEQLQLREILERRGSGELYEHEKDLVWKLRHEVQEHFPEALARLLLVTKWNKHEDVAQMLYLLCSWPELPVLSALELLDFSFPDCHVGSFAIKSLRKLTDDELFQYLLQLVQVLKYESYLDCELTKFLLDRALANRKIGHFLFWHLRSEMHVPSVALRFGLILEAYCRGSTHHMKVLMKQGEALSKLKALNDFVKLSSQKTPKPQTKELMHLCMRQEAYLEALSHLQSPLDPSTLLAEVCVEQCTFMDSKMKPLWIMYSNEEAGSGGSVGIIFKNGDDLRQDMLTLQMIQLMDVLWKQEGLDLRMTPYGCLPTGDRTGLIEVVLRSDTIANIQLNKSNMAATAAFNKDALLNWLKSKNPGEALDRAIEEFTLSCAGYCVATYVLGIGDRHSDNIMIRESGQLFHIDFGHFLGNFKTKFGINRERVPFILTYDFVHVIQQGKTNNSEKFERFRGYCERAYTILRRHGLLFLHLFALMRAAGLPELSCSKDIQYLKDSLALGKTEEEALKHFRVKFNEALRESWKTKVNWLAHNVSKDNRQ
T1 sequence (P27986 whole entry partner, species assumed): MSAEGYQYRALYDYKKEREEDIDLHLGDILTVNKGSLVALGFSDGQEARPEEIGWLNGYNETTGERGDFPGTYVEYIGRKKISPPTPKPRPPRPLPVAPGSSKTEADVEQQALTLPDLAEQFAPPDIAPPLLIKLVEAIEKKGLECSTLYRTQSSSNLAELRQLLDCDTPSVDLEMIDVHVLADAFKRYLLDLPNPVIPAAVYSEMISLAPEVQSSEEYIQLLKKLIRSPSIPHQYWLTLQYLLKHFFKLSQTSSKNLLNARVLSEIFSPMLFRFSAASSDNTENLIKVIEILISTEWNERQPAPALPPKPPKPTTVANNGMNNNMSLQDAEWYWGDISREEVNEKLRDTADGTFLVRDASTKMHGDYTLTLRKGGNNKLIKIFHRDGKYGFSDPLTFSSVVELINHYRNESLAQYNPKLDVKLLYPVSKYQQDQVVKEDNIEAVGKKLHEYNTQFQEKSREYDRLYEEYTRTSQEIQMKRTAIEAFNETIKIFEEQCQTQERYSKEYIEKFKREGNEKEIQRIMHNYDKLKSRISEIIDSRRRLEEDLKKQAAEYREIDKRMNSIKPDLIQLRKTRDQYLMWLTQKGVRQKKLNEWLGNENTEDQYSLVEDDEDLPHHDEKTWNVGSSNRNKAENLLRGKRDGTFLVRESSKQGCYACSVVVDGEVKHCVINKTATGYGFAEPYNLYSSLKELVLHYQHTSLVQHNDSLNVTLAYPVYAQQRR

Structure (SMILES)	pIC50
CCOc1c(C(C)Nc2ncnc3[nH]cnc23)cc(C#N)c(F)c1-c1ccc(C(=O)N(C)C)nc1 (stereo not shown) [Example 211, 5-{3-Cyano-6-ethoxy-2-fluoro-5-[1-(9H-purin-6-ylamino)ethyl]phenyl}-N,N-dimethylpyridine-2-carboxamide bis(trifluoroacetate)]	> 7.30
COc1ncc(-c2c(C)c(Cl)cc(C(C)Nc3ncnc4[nH]cnc34)c2OCCN2CCOCC2)cn1 (stereo not shown) [Example 161, N-{1-[5-chloro-3-(2-methoxy-pyrimidin-5-yl)-4-methyl-2-(2-morpholin-4-yl-ethoxy)-phenyl]-ethyl}-9H-purin-6-amine]	> 7.30
COc1c(C(C)Nc2ncnc3[nH]cnc23)cc(Cl)c(C)c1-c1ccc(OC(C)C)nc1 (stereo not shown) [Example 59, N-{1-[5-chloro-3-(6-isopropoxypyridin-3-yl)-2-methoxy-4-methylphenyl]ethyl}-9H-purin-6-amine]	6.60 to 7.00
CCC(Nc1ncnc2[nH]cnc12)c1cc(Cl)c(C)c(-c2cncc(S(C)(=O)=O)c2)c1OC (stereo not shown) [Example 182, N-(1-{5-chloro-2-methoxy-4-methyl-3-[5-(methylsulfonyl)pyridin-3-yl]phenyl}propyl)-9H-purin-6-amine bis(2,2,2-trifluoroacetate)]	> 7.30
COc1c(C(C)Nc2ncnc3[nH]cnc23)cc(Cl)c(C)c1-c1cc(F)cc(Cl)c1 (stereo not shown) [Example 85, N-[1-(3′,5-dichloro-5′-fluoro-2-methoxy-6-methylbiphenyl-3-yl)ethyl]-9H-purin-6-amine]	6.30 to 6.60
COc1c(C(C)Nc2ncnc3[nH]cnc23)cc(Cl)c(C)c1-c1cnc(N)nc1 (stereo not shown) [Example 115, N-{1-[3-(2-aminopyrimidin-5-yl)-5-chloro-2-methoxy-4-methylphenyl]ethyl}-9H-purin-6-amine]	> 7.30
COc1c(C(C)Nc2ncnc3[nH]cnc23)cc(Cl)c(C)c1-c1ccc(C(C)(C)O)nc1 (stereo not shown) [Example 184, 2-(5-{3-chloro-6-methoxy-2-methyl-5-[1-(9H-purin-6-ylamino)ethyl]phenyl}pyridin-2-yl)propan-2-ol bis(2,2,2-trifluoroacetate)]	> 7.30
COc1c(C(C)Nc2ncnc3[nH]cnc23)cc(Cl)c(C)c1-c1cnn(C2(CC#N)CC(C#N)C2)c1 (single isomer, unassigned) [Example 54, 3-(4-{3-chloro-6-methoxy-2-methyl-5-[1-(9H-purin-6-ylamino)ethyl]phenyl}-1H-pyrazol-1-yl)-3-(cyanomethyl)cyclobutanecarbonitrile]	> 7.30
Cc1c(Cl)cc(C(C)Nc2ncnc3[nH]cnc23)c(OCCN2CCOCC2)c1-c1cncc(F)c1 (stereo not shown) [Example 162, N-{1-[5-chloro-3-(5-fluoro-pyridin-3-yl)-4-methyl-2-(2-mor-pholin-4-ylethoxy)-phenyl]-ethyl}-9H-purin-6-amine]	> 7.30
COc1c(C(C)Nc2ncnc3[nH]cnc23)cc(Cl)c(C)c1-c1ccc(CO)nc1 (stereo not shown) [Example 183, (5-{3-chloro-6-methoxy-2-methyl-5-[1-(9H-purin-6-ylamino)ethyl]phenyl}pyridin-2-yl)methanol bis(2,2,2-trifluoroacetate)]	> 7.30
COc1c(C(C)Nc2ncnc3[nH]cnc23)cc(Cl)c(C)c1-c1ccc(N)nc1 (stereo not shown) [Example 57, N-{1-[3-(6-aminopyridin-3-yl)-5-chloro-2-methoxy-4-methylphenyl]ethyl}-9H-purin-6-amine]	> 7.30
CCOc1cccc(-c2c(C)c(F)cc(C(C)Nc3ncnc4[nH]cnc34)c2OC)c1 (stereo not shown) [Example 119, N-[1-(3′-ethoxy-5-fluoro-2-methoxy-6-methylbiphenyl-3-yl)ethyl]-9H-purin-6-amine]	6.60 to 7.00
COc1cccc(-c2c(C)c(Cl)cc(C(C)Nc3ncnc4[nH]cnc34)c2OC)c1 (stereo not shown) [Example 103]	> 7.30
COc1c(C(C)Nc2ncnc3[nH]cnc23)cc(Cl)c(C)c1-c1ccc(C#N)nc1 (stereo not shown) [Example 58, 5-{3-chloro-6-methoxy-2-methyl-5-[1-(9H-purin-6-ylamino)ethyl]phenyl}pyridine-2-carbonitrile]	7.00 to 7.30
COc1c(C(C)Nc2ncnc3[nH]cnc23)cc(Cl)c(C)c1-c1cncc(C#N)c1 (stereo not shown) [Example 114, 5-{3-chloro-6-methoxy-2-methyl-5-[1-(9H-purin-6-ylamino)ethyl]phenyl}nicotinonitrile]	> 7.30
COc1c(C(C)Nc2ncnc3[nH]cnc23)cc(F)c(C)c1-c1ccnn1C (stereo not shown) [Example 122, N-{1-[5-fluoro-2-methoxy-4-methyl-3-(1-methyl-1H-pyrazol-5-yl)phenyl]ethyl}-9H-purin-6-amine]	6.30 to 6.60

Structure (SMILES)	pIC50
COc1c(C(C)Nc2ncnc3[nH]cnc23)cc(F)c(C)c1-c1cnc(N)nc1 (stereo not shown) [Example 123, N-{1-[3-(2-aminopyrimidin-5-yl)-5-fluoro-2-methoxy-4-methylphenyl]ethyl}-9H-purin-6-amine]	7.00 to 7.30
COC(=O)N1CC(c2c(C)c(Cl)cc(C(C)Nc3ncnc4[nH]cnc34)c2OC)C1 (stereo not shown) [Example 167, Methyl 3-{3-chloro-6-methoxy-2-methyl-5-[1-(9H-purin-6-ylamino)ethyl]phenyl}azetidine-1-carboxylate trifluoroacetate]	> 7.30
COc1c(C(C)Nc2ncnc3[nH]cnc23)cc(Cl)c(C)c1-c1cscn1 (stereo not shown) [Example 164, N-{1-[5-Chloro-2-methoxy-4-methyl-3-(1,3-thiazol-4-yl)phenyl]ethyl}-9H-purin-6-amine trifluoroacetate]	> 7.30
CC(Nc1ncnc2[nH]cnc12)c1cc(Cl)cc(-c2ccncc2)c1-c1cc(F)cc(F)c1 (stereo not shown) [Example 131, N-[1-(4-chloro-3′,5′-difluoro-6-pyridin-4-ylbiphenyl-2-yl)ethyl]-9H-purin-6-amine]	> 7.30
COc1cccc(-c2c(C)c(Cl)cc(C(C)Nc3ncnc4[nH]cnc34)c2OCCN2CCOCC2)c1 (stereo not shown) [Example 150, N-{1-[5-chloro-3′-methoxy-6-methyl-2-(2-mor-pholin-4-ylethoxy)-biphenyl-3-yl]ethyl}-9H-purin-6-amine]	> 7.30
COc1c(C(C)Nc2ncnc3[nH]cnc23)cc(Cl)c(F)c1C1CN(C(C)C)C1 (stereo not shown) [Example 172, N-{1-[5-Chloro-4-fluoro-3-(1-isopropylazetidin-3-yl)-2-methoxyphenyl]ethyl}-9H-purin-6-amine bis(trifluoroacetate)]	> 7.30
Cc1c(Cl)cc(C(C)Nc2ncnc3[nH]cnc23)c(C)c1-c1ccncc1 (stereo not shown) [Example 127, N-[1-(5-Chloro-2,4-dimethyl-3-pyridin-4-ylphenyl)ethyl]-9H-purin-6-amine]	> 7.30
COc1c(C(C)Nc2ncnc3[nH]cnc23)cc(Cl)c(F)c1CN1CCOCC1 (stereo not shown) [Example 188, N-{1-[5-Chloro-4-fluoro-2-methoxy-3-(morpholin-4-ylmethyl)phenyl]ethyl}-9H-purin-6-amine]	> 7.30
COc1ccc(-c2cc(Cl)cc(C(C)Nc3ncnc4[nH]cnc34)c2OC)cn1 (stereo not shown) [Example 148, N-{1-[5-chloro-2-methoxy-3-(6-methoxypyridin-3-yl)phenyl]ethyl}-9H-purin-6-amine]	7.00 to 7.30
Cc1c(Cl)cc(C(C)Nc2ncnc3[nH]cnc23)c(OCCN2CCOCC2)c1-c1cc(F)cc(C(N)=O)c1 (stereo not shown) [Example 159, 3′-chloro-5-fluoro-2′-methyl-6′-(2-morpholin-4-ylethoxy)-5′-[1-(9H-purin-6-yl-amino)ethyl]-biphenyl-3-carboxamide]	> 7.30
COc1c(C(C)Nc2ncnc3[nH]cnc23)cc(Cl)c(C)c1-c1ccc(Cl)cc1 (stereo not shown) [Example 99, N-[1-(4′,5-dichloro-2-methoxy-6-methylbiphenyl-3-yl)ethyl]-9H-purin-6-amine]	6.30 to 6.60
COc1c(C(C)Nc2ncnc3[nH]cnc23)cc(Cl)c(C)c1-c1ccc(C(=O)N2CCCC2)c(F)c1 (stereo not shown) [Example 66, N-{1-[5-chloro-3′-fluoro-2-methoxy-6-methyl-4′-(pyrrolidin-1-ylcarbonyl)biphenyl-3-yl]ethyl}-9H-purin-6-amine]	> 7.30
COc1c(C(C)Nc2ncnc3[nH]cnc23)cc(Cl)c(C)c1C(O)CN1CCOCC1 (stereo not shown) [Example 190, 1-{3-Chloro-6-methoxy-2-methyl-5-[1-(9H-purin-6-ylamino)ethyl]phenyl}-2-morpholin-4-ylethanol bis(trifluoroacetate)]	> 7.30
COc1c(C(C)Nc2ncnc3[nH]cnc23)cc(Cl)c(C)c1-c1cncc(C)c1 (stereo not shown) [Example 55, N-{1-[5-chloro-2-methoxy-4-methyl-3-(5-methylpyridin-3-yl)phenyl]ethyl}-9H-purin-6-amine]	> 7.30
CC(Nc1ncnc2[nH]cnc12)c1cc(Cl)c(CC#N)c(C#N)c1-c1cccc(F)c1 (stereo not shown) [Example 4, 4-Chloro-3-(cyanomethyl)-3′-fluoro-6-[1-(9H-purin-6-ylamino)ethyl]biphenyl-2-carbonitrile]	6.00 to 6.30
